Assay [1] relates to clone 27 HepG2 cells transfected with human GPR35a. The experiment in a line: Cellular impedance in clone 27 cells transiently transfected with human GPR35a. Type of assay: cell-based. The following applies: ML-145 1 × 10^–5 M, lodoxamide 1 × 10^–8 M. On the procedure:
Briefly, CRISPR KO cells were transiently transfected 24 h with the human GPR35a expression vector using LipofectAMINE 3000 reagent, according to the manufacturer’s instructions. […] Alternatively, after 24 h transfection, cells were seeded onto a 12-well plate (1 × 10^5 cells/well) for 24 h at 37 °C. Then, cells were incubated with T0901317 and/or GPR35 agonists (in MEM containing 5% FBS) for 72 h. After the drug treatment, cells were stained with Oil Red O to examine the levels of lipid accumulation. Each experiment was repeated at least three times.
(§1) HepG2 cells were seeded onto xCELLigence E plates (2 × 10^4 cells/well) and incubated for 24 h at 37 °C. To evaluate GPR35 activation and its downstream G protein signaling, HepG2 cells or primary mouse hepatocytes were exposed to GPR35 antagonists or G protein inhibitors 1 h (overnight for Pertussis toxin) prior to GPR35 agonist stimulation. After the addition of GPR35 agonist or vehicle control, the impedance (represented as “cell index”) was recorded every 30 s over a 2 h period using xCELLigence RTCA (Agilent). Each experiment was repeated at least three times.

Assay [2] has as its system hepatocytes from hGPR35a-HA-expressing mice. Kind of assay: Label-free cellular impedance assay in hepatocytes from hGPR35a-HA-expressing mice. Type of assay: cell-based, mouse.
Assay [3] concerns mouse orthologue of GPR35. Details: method as in PMID 22967846, PMID 30601679. As to conditions: cited from earlier work.
Assay [4] relates to hepatocytes from hGPR35a-HA-expressing mice. The experiment in a line: Oil Red O lipid accumulation in hepatocytes from hGPR35a-HA-expressing mice. Format: cell-based, mouse. The following applies: hepatocytes from hGPR35a-HA-expressing mice. As for the experimental part:
All mice were bred as WT or homozygous onto a C57BL/6N background. Animals were cared for in accordance with national guidelines on animal experimentation. All animal experiments were conducted under a home office license held by the authors. WT, humanized GPR35a, or KO male mice at 3–4 months of age were used in this study. These mice were fed ad libitum with a standard mouse chow diet. Briefly, mouse primary hepatocytes were isolated using a two-step collagenase perfusion technique.[45] Twelve-well plates or xCELLigence E plates were coated with rat tail collagen I solution (Thermo Fisher Scientific) overnight at 37 °C and washed with PBS. Isolated primary hepatocytes were seeded onto 12-well plates (8 × 10^4 cells/well) or xCELLigence E plates (2 × 10^4 cells/well) in Wiliam’s E medium (Thermo Fisher Scientific) supplemented with 10% fetal bovine serum (FBS) and 1× penicillin/streptomycin. Cells were maintained for 7 days with a fresh medium change every other day. […] Human GPR35 activation was examined using xCELLigence RTCA assay. To access the impact of GPR35 agonists on the lipid accumulation, WT and humanized GPR35 hepatocytes were incubated with T0901317 and/or GPR35 agonists/antagonists, as indicated (in DMEM medium containing 5% FBS and 1.5% BSA) for 48 h. Alternatively, GPR35 KO hepatocytes were incubated with drugs, as indicated for 5 days. In the T0901317 pretreatment model, human GPR35 hepatocytes were stimulated with T0901317 for 2 days and then further treated with lodoxamide for a further 3 days. After each drug treatment, hepatocytes were stained with Oil Red O and quantified as described. Each experiment was repeated at least three times.
Lipid accumulation was measured by Oil Red O staining. A working solution of Oil Red O was prepared, as described with modification.[46] After drug treatment, cells were washed with PBS and fixed with formalin solution for 1 h at 4 °C. Then, cells were stained with Oil Red O working solution for 10 min at room temperature. After PBS washing, Oil Red O was extracted from cells using 150 μl of isopropanol and OD510 nm measured. After the lipid extraction, cells were further soaked in PBS overnight at 4 °C. These cells were then stained with Hoechst 33342 (1 μg/mL) and the fluorescence intensity of Hoechst (represents the DNA content in cells) was measured using a CLARIOstar plate reader (BMG LABTECH). Oil Red O accumulation was corrected for differences in DNA content and expressed as relative absorbency, taking the control condition (treated with vehicle only) as 1.

The next assay deals with human isoforms of GPR35. Details: method as in PMID 23888932. The following applies: read-out: Ki from competition studies against a [3H]radiolabeled agonist; cited from earlier work.
Assay [5] relates to HepG2 cells. Kind of assay: Label-free cellular impedance assay (xCELLigence) in HepG2 cells. Type of assay: cell-based, human. The following applies: HepG2 cells; for impedance response of antagonist added alone: 1 × 10^–5 M; for impedance response to lodoxamide on co-addition of antagonist: antagonist 1 × 10^–5 M, lodoxamide 1 × 10^–8 M. As for the experimental part: as §1
For assay [6], the system named is HepG2 cells. The experiment in a line: Oil Red O staining of LXR (T0901317)-induced lipid accumulation in HepG2 cells. Type of assay: cell-based, human. The following applies: T0901317/lodoxamide, concentration-dependent. On the procedure: Human hepatocellular carcinoma HepG2 cells were grown in Minimum Essential Medium (MEM) supplemented with 10% fetal bovine serum (FBS), 2 mM L-glutamine, 1× non-essential amino acid, 1 mM sodium pyruvate, and 1× penicillin/streptomycin. Materials for cell culture were all from Sigma-Aldrich (St. Louis, MO) or Thermo Fisher Scientific (Waltham, MA). Cells were incubated in a humidified CO2 incubator at 37 °C. […] Cells were seeded onto a 12-well plate (1 × 10^5 cells/well) for 24 h prior to drug treatment. […] Lipid accumulation was measured by Oil Red O staining.

The test system of assay [7] is primary mouse hepatocytes. Details: method as in Nam et al. 37. As to conditions: against 1 × 10^–6 M lodoxamide; ref Nam et al. 37; read-out: IC50 to block mouse GPR35 in primary hepatocytes; cited from earlier work.

The term Ki denotes a dissociation constant, usually derived from enzyme kinetics or from competition with a known ligand. Turning to `CC(/C=C1\SC(=S)N(CCCC(=O)Nc2ccc(C(=O)O)c(O)c2)C1=O)=C\c1ccccc1` [ML-145, 2-hydroxy-4-[4-(5Z)-5-[(E)-2-methyl-3-phenylprop-2-enylidene]-4-oxo-2-sulfanylidene-1,3-thiazolidin-3-yl]butanoylaminobenzoic acid], the “effect of co-addition of antagonist on the lodoxamide impedance signal in clone 27 cells transfected with human GPR35a” value in assay [1] is “blocked”. Moreover, in assay [2] (ML-145 1 × 10^–5 M, lodoxamide 1 × 10^–7 M), the “effect of co-addition of antagonist on the lodoxamide impedance response” value is reported as “prevented”. Also, the “impedance effect of antagonist alone versus DMSO-containing vehicle” value in assay [2] (hepatocytes from hGPR35a-HA-expressing mice) is “no separate effect”. Also, the “affinity at the mouse orthologue of GPR35” value in assay [3] is recorded as “neither of these ligands has measurable affinity”. In assay [4], the “effect of antagonist added alone on lipid content” value is “without effect when added alone”. Moreover, in assay [4] (T0901317/lodoxamide 5 × 10^–6 M), the “effect of antagonist on lodoxamide suppression of lipid accumulation” value is recorded as “blocked the effect of lodoxamide in a concentration-dependent manner”. Besides, the Ki on human isoforms of GPR35 is 8.7 nM. Besides, in the assay with HepG2 cells [5], the “impedance response of antagonist added alone” value was “neither antagonist generated a response distinct from the vehicle” and the “impedance response to lodoxamide on co-addition of antagonist” value was “absent”. The “antagonist co-addition: effect of lodoxamide on LXR-induced lipid accumulation” value in the assay with HepG2 cells [6] is recorded as “prevented the effect of lodoxamide on lipid accumulation”.

For orientation: IC50 means the concentration that inhibits the measured activity by half. On to `COC(=O)c1cnn(-c2ccc(F)cc2F)c1C=NNC(=S)NC(C)(C)C` [CID-2745687, 1-(2,4-difluorophenyl)-5-[[2-[[(1,1-dimethylehyl)amino]thioxomethyl]hydrazinylidene]methyl]-1H-pyrazole-4-carboxylic acid methyl ester], for which the “affinity at the mouse orthologue of GPR35” value in assay [3] was “neither of these ligands has measurable affinity”. Further, the IC50 in assay [7] is 98 nM. Besides, at human isoforms of GPR35, the Ki is 42 nM. Moreover, in the assay with HepG2 cells [5], the “impedance response of antagonist added alone” value is “neither antagonist generated a response distinct from the vehicle” and the “impedance response to lodoxamide on co-addition of antagonist” value is on record as “absent”. The “antagonist co-addition: effect of lodoxamide on LXR-induced lipid accumulation” value in the assay with HepG2 cells [6] is “prevented the effect of lodoxamide on lipid accumulation”.
